Measurements from patent publication US11691989B2, “Macrocyclic indoles as Mcl-1 inhibitors” (ASCENTAGE PHARMA (SUZHOU) CO., LTD., priority 2018, dated 2023).

Assays:
[1] = biological target: Mcl-1 protein (residues 171-323) (Homo sapiens (Human), UniProt Q07820); test: Inhibition of Mcl-1 by fluorescence polarization (FP) competitive binding assay with FAM-Bid tracer; conditions: 2 nM FAM-Bid, 20 nM Mcl-1, 30 min, read-out: Mc1-1 (FP)
Experimental: Inhibition of Mcl-1 by fluorescence polarization (FP) assay.
The method used a fluorescein labelled peptide (FAM-Bid) which binds to the Mcl-1 protein leading to an increased anisotropy measured in milli-polarization (mP) values using a plate reader.
A 10-points serial dilution of each compound was prepared in DMSO and 5 μL solution was transferred into flat bottomed, 96-well back plate (final DMSO concentration 5%). 120 μL of Buffer (PBS, 0.01% BGG (Sigma Cat. #SRE0011), 0.01% Triton X-100), containing the Fluorescein labelled peptide (Final concentration 2 nM) and Mcl-1 protein (final concentration 20 nM) was then added. […] 10-points dose response curves were plotted with GraphPad software using Sigmoidal Dose-Response Model and the IC50 values were determined by nonlinear regression fitting of the competition curves.

OPM-2 cells = test: Cell viability assay (OPM-2 cells), CCK-8; assay type: cell-based; conditions: 5% FBS
Experimental: Cell Viability Assay (OPM-2 cells)
OPM-2 cells were obtained from Deutsche Sammlung von Mikroorganismen and Zellkulturen GmbH (DSMZ). Cells were maintained in the recommended culture medium with 10% FBS at 37° C. and an atmosphere of 5% CO2.
The effect of representative Compounds of the Disclosure on cell viability was determined using Cell Counting Kit-8 (CCK-8) assay (Shanghai Life iLab Bio Technology) according to the manufacturer's instructions. Each tested compound was serially diluted in culture medium, 100 μL of the compound dilution was added into 96-well plates. 100 μL of an OPM-2 cell suspension (20000 cells/well) in culture medium were seeded into the corresponding well of the plate and the cells were incubated at 37° C. in an atmosphere of 5% CO2 for 24 hours. In the next day, 20 μL of CCK-8 solution was added to each well of the plate and incubated for 4 hours.
The plates were read at 450 nm on the microplate spectrophotometer (SpectraMax plus 384, Molecular devices). The readings were normalized to the vehicle cells, and the IC50 was calculated by nonlinear regression analysis using GraphPad Prism 6 software.

NCI-H929 cells = test: Cell viability assay (NCI-H929 cells), CCK-8; assay type: cell-based; conditions: 5% FBS
Experimental: Cell Viability Assay (NCI-H929 cells)
NCI-H929 cells were obtained from American Type Culture Collection (ATCC). Cells were maintained in the recommended culture medium (RPMI 1640) with 10% FBS and 0.05 mM BME at 37° C. and an atmosphere of 5% CO2.
The effect of Compounds on cell viability was determined using Cell Counting Kit-8 (CCK-8) assay according to the manufacturer's instructions. 95 μL of NCI-H929 cell suspension (20000 cells/well) in culture medium were seeded into 96-well plates and cultured 4 hrs. Each tested compound was serially diluted in DMSO, then 5 μL of the compound or DMSO was diluted in 95 μL medium once more. At last, 5 μL of the compound dilution was added to the corresponding well of the cell plate. After the addition of the tested compound, the cells were incubated at 37° C. in an atmosphere of 5% CO2 for 24 hrs. At the end, 10 μL of CCK-8 solution was added to each well of the plate and incubated for 1-4 hours. The plates were read at 450 nm on the microplate reader (BioTek Synergy 1MF). The readings were normalized to the vehicle cells, and the IC50 was calculated by nonlinear regression analysis using GraphPad Prism 6 software.

[2] = Microsome clearance assay, mouse; assay type: in vitro ADME; conditions: 0.5 mg/ml protein, 1 mM NADPH, 60 minutes; for Mouse Liver Microsome Clint (μL/min/mg protein): mouse liver microsomes, 5 μM; for microsomal CLint at 5 μM: male, CD-1, mouse, pooled liver microsomes, pH 7.4, mouse liver microsomes, read-out: Mouse Liver Microsome Clint (μL/min/mg protein)
Experimental: (§1) Representative Compounds of the Disclosure were tested in a microsome clearance assay. Pooled liver microsomes (20 mg/ml) from human, male Wister rat, and male CD-1 mouse were obtained from BD Bioscience (Franklin Lakes, N.J. USA). Incubation reaction mixtures contained a final concentration of 0.1M sodium phosphate buffer (pH 7.4), 0.5 mg/ml microsomal protein, 5 μM of test sample and 1 mM NADPH in a total volume of 400 μl. The incubations were done for 60 minutes and 300 μl of the mixtures was transferred to 150 μl of ice cold methanol to terminate reactions. After vortexes for 3 minutes and centrifuged at 4000 rpm at 4° C. for 10 minutes, the clear supernatant was used directly for analysis. The samples were analyzed by Applied Biosystems API 3200 Q TRAP LC/MS/MS system using electrospray ionization mode.

[3] = Microsome clearance assay, rat; assay type: in vitro ADME; conditions: 0.5 mg/ml protein, 1 mM NADPH, 60 minutes; for Rat Liver Microsome Clint (μL/min/mg protein): rat liver microsomes, 5 μM; for microsomal CLint at 5 μM: male, Wister, rat, pooled liver microsomes, pH 7.4, rat liver microsomes, read-out: Rat Liver Microsome Clint (μL/min/mg protein)
Experimental: as §1

[4] = Microsome clearance assay, human; assay type: in vitro ADME; conditions: 0.5 mg/ml protein, 1 mM NADPH, 60 minutes; for Human Liver Microsome Clint (μL/min/mg protein): human liver microsomes, 5 μM; for microsomal CLint at 5 μM: human, pooled liver microsomes, pH 7.4, human liver microsomes, read-out: Human Liver Microsome Clint (μL/min/mg protein)
Experimental: as §1

Mcl-1 protein (residues 171-323), sequence (Q07820 171-323): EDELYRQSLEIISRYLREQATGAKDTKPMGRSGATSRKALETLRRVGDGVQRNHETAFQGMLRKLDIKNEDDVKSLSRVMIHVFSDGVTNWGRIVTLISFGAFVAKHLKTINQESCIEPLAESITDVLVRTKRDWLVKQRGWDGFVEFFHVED

SMILES | IC50 [1] [nM] | IC50 (NCI-H929 cells; 24 hrs) [nM] | Mouse Liver Microsome Clint (μL/min/mg protein) [2] [μL/min/mg protein] | Rat Liver Microsome Clint (μL/min/mg protein) [3] [μL/min/mg protein] | Human Liver Microsome Clint (μL/min/mg protein) [4] [μL/min/mg protein] | IC50 (NCI-H929 cells; Homo sapiens, NCI-H929, 24 h) [nM] | microsomal CLint at 5 μM [2] [µL/min/mg] | microsomal CLint at 5 μM [3] [µL/min/mg] | microsomal CLint at 5 μM [4] [µL/min/mg] | IC50 (OPM-2 cells; 24 hours) [nM] | IC50 (OPM-2 cells; Homo sapiens, OPM-2, 24 h) [nM]
Cc1c(C(=O)O)n2c3ccc(Cl)c(c13)-c1c(nn(C)c1C)CN(S(C)(=O)=O)Cc1cc(n(C)n1)CSc1cc(c3ccc(F)cc3c1)OCCC2 [Cpd. No. 34, (S)-(Z)-1^5-chloro-9^6-fluoro-1^3,2^1,2^5,6^1-tetramethyl-4-(methylsulfonyl)-1^1H,2^1H, 6^1H-10-oxa-8-thia-4-aza-1(4,1)-indola-2(4,3),6(3,5)-dipyrazola-9(3,1)-naphthalenacyclotridecaphane-1^2-carboxylate] | 2600 | 8520 | 110 | 13.0 | <2.8 |  |  |  |  | > 10000 | 
Cc1c(C(=O)O)n2c3ccc(Cl)c(c13)-c1c(nn(C)c1C)CSCc1cc(n(C)n1)CSc1cc(c3ccc(F)cc3c1)OCCC2 (atropisomer, axis not shown) [Cpd. No. 16, (S)-(Z)-1^5-chloro-9^6-fluoro-1^3,2^1,2^5,6^1-tetramethyl-1^111,2^1H,6^1H-10-oxa-4,8-dithia-1(4,1)-indola-2(4,3),6(3,5)-dipyrazola-9(3,1)-naphthalenacyclotridecaphane-1^2-carboxylic acid] | 3200 | 2240 | 135 | 64.6 | 23.4 |  |  |  |  | 4050 | 
Cc1c(C(=O)O)n2c3ccc(Cl)c(c13)-c1c(nn3c1COCC3)CN(S(=O)(=O)c1ccccc1)Cc1cc(n(C)n1)CSc1cc(c3ccc(F)cc3c1)OCCC2 [Cpd. No. 29, (Z)-1^5-chloro-9^6-fluoro-1^3, 6^1-di methyl-4-(phenylsulfonyl)-26,27-dihydro-1^1H,2^4H,6^1H-10-oxa-8-thia-4-aza-2(3,2)-pyrazolo[5,1-c][1,4]oxazina-1(4,1)-indola-6(3,5)-pyrazola-9(3,1)-naphthalenacyclotridecaphane-1^2-carboxylic acid] | 35 |  |  |  |  | 621 | 54.6 | 42 | 21.4 |  | 1900
Cc1c(C(=O)O)n2c3ccc(Cl)c(c13)-c1c(nn(C)c1C)CSCc1cc(n(C(C)C)n1)CSc1cc(c3ccc(F)cc3c1)OCCC2 [Cpd. No. 17, (Z)-1^5-chloro-9^6-fluoro-6^1-isopropyl-1^3,2^1,2^5-trimethyl-1^1H,2^1H,6^1H-10-oxa-4,8-dithia-1(4,1)-indola-2(4,3),6(3,5)-dipyrazola-9(3,1)-naphthalenacyclotridecaphane-1^2-carboxylic acid] |  |  |  |  |  | 77 | 29.2 | 46.6 | 19.4 |  | 94

Second part, led by results:

IC50 [1] [nM] | IC50 (NCI-H929 cells; 24 hrs) [nM] | Mouse Liver Microsome Clint (μL/min/mg protein) [2] [μL/min/mg protein] | Rat Liver Microsome Clint (μL/min/mg protein) [3] [μL/min/mg protein] | Human Liver Microsome Clint (μL/min/mg protein) [4] [μL/min/mg protein] | IC50 (NCI-H929 cells; Homo sapiens, NCI-H929, 24 h) [nM] | microsomal CLint at 5 μM [2] [µL/min/mg] | microsomal CLint at 5 μM [3] [µL/min/mg] | microsomal CLint at 5 μM [4] [µL/min/mg] | SMILES | IC50 (OPM-2 cells; 24 hours) [nM] | IC50 (OPM-2 cells; Homo sapiens, OPM-2, 24 h) [nM]
15 |  |  |  |  | 3040 | 28.8 | 122 | 21.8 | Cc1c2c(nn1C)CSCc1cc(n(C)n1)CSc1cc(c3ccc(F)cc3c1)OCCCn1c(C(=O)O)c(C(F)(F)F)c3c-2c(Cl)ccc31 [Cpd. No. 24, (Z)-1^5-chloro-9^6-fluoro-2^1,2^5,6^1-trimethyl-1^3-(trifluoromethyl)-1^1H,2^1H,6^1H-10-oxa-4,8-dithia-1(4,1)-indola-2(4,3),6(3,5)-dipyrazola-9(3,1)-naphthalenacyclotridecaphane-1^2-carboxylic acid] |  | 5420
16 |  |  |  |  | 1070 | 52.4 | 30.4 | 48.2 | Cc1c2c(nn1C)CSCc1cc(n(C)n1)CSc1cc(c3ccc(F)cc3c1)OCCCn1c(C(=O)O)c(CN(C)S(=O)(=O)C(F)(F)F)c3c-2c(Cl)ccc31 [Cpd. No. 23, (Z)-1^5-chloro-9^6-fluoro-2^1,2^5,6^1-trimethyl-1^3-(((1,1,1-trifluoro-N-methylmethyl)sulfonamido)methyl)-1^1H,2^1H,6^1H-10-oxa-4,8-dithia-1(4,1)-indola-2(4,3),6(3,5)-dipyrazola-9(3,1)-naphthalenacyclotridecaphane-1^2-carboxylic acid] |  | 1870
14 |  |  |  |  | 47 | 116 | 38.4 | 42.8 | Cc1nn(C)c2c1-c1c(Cl)ccc3c1c(C)c(C(=O)O)n3CCCOc1cc(cc3cc(F)ccc13)SCc1cc(nn1C)CSC2 [Cpd. No. 28, (Z)-1^5-chloro-9^6-fluoro-1^3,2^1,2^3,6^1-tetramethyl-1^1H,2^1H,6^111-10-oxa-4,8-dithia-1(4,1)-indola-2(4,5),6(3,5)-dipyrazola-9(3,1)-naphthalenacyclotridecaphane-1^2-carboxylic acid] |  | 66
8 |  |  |  |  | 300 | 43.4 | 21.6 | 8 | Cc1c(C(=O)O)n2c3ccc(Cl)c(c13)-c1c(nn(C)c1C)CN(S(C)(=O)=O)Cc1cc(n(C)n1)CSc1cc(c3ccccc3c1)OCCC2 [Cpd. No. 46, (Z)-1^5-chloro-1^3,2^1,2^5,6^1-tetramethyl-4-(methylsulfonyl)-1^11-1,2^1H,6^1H-10-oxa-8-thia-4-aza-1(4,1)-indola-2(4,3),6(3,5)-dipyrazola-9(3,1)-naphthalenacyclotridecaphane-1^2-carboxylic acid] |  | 637
7 |  |  |  |  | 165 | 49 | 34.4 | 35.2 | Cc1c(C(=O)O)n2c3ccc(Cl)c(c13)-c1c(nn3c1COCC3)CSCc1cc(n(C)n1)CSc1cc(c3ccccc3c1)OCCC2 [Cpd. No. 1, (Z)-1^5-chloro-1^3,6^1-dimethyl-2^6,2^7-dihydro-1^1H,2^4H,6^1H-10-oxa-4,8-dithia-2(3,2)-pyrazolo[5,1-c][1,4]oxazina-1(4,1)-indola-6(3,5)-pyrazola-9(3,1)-naphthalenacyclotridecaphane-1^2-carboxylic acid] |  | 1540
